# How the values were obtained:
# Assay type in all cases: in vivo, mouse
# 4T1 tumors = experiment: Tumor regression in 4T1 syngeneic TNBC tumor models; details: antibodies i.p., similar dose (FIGS. 6I and 6J)
# Description: FIGS. 4A-4K. DR5 agonist activated ROCK1 functions to help PD-L1 surface mobilization. (FIGS. 4A and 4B) KMTR2 and lexatumumab treated MDA-MB-436 and OVCAR3 (respectively) lysates for indicated early time points were analyzed for caspase-8, caspase-3, ROCK1, pMLC, PARP, PD-L1 and CMTM6 etc. as indicated. Vertical arrows indicate sequential kinetics of caspase-8, ROCK1, and caspase-3 activation, arrows with “n.s.” below them indicate nonspecific band by ROCK1 antibody. (FIG. 4C) OVCAR3 cells were treated with pMLC activating ionophore A23187 (positive control) and lexatumumab ±ROCK1 inhibitors or ±rDR5 or ±rFOLR1. Lysates were later analyzed for ROCK1, pMLC, caspase-3 and PARP with GAPDH as loading control. (FIG. 4D) MDA-MB-436 and OVCAR3 cells were treated with indicated ROCK1 inhibitors 2 hours prior to DR5 agonist KMTR2 treatment. After 4 hours flow cytometry was used to analyze surface PD-L1. […] Relative luciferase signal was quantified and plotted after subtraction of background signal from untreated cells. […] Tumor volumes were quantified at indicated days by caliper measurements. […] Statistical significance in FIG. 4J was determined by unpaired student t-test and in FIG. 4K using two-tailed […] Wilcoxon Mann-Whitney test. […]
# FIGS. 6A-6M. […] CD8/CD45 and CD4/CD45 expressing cells were measured by flow cytometry. […] Harvested tumors homogenized followed by quantitation. […]
# [1] = system: chi-G4S-DR5 stable MC38 tumors; experiment: Immunoblotting of Chi-G4S-DR5 stable MC38 tumor lysates (granzyme-b); details: size matched tumors, 6 total doses (FIG. 18A)
# [2] = system: chi-G4S-DR5 stable 4T1 tumors; experiment: Immunoblotting of Chi-G4S-DR5 stable 4T1 tumor lysates (granzyme-b, Foxp3); details: size matched tumors, 6 total doses (FIG. 6D)
substance,measurement,setting,value
avelumab: clinical anti-PD-L1 antibody (human/mouse cross-reactive); VL and VH SEQ ID NOs: 9 and 10,tumor regression,4T1 tumors,only stabilized the tumors
same,granzyme-b activity in tumors compared to DR5 agonist alone,[1],significantly higher granzyme-b activity
same,granzyme-b activity in tumors compared to DR5 agonist alone,[2],significantly higher granzyme-b activity

# From patent publication US20230391881A1, “COMPOSITIONS AND METHODS FOR OVERCOMING DR5-INDUCED IMMUNE EVASION BY SOLID TUMORS” (University of Virginia Patent Foundation, priority 2020, published 2023)
